Patent publication US20250243190A1, “NEW DEUTERATED RORGAMMA/RORGAMMAT INVERSE AGONISTS” (IMMUNIC AG, priority 2022, published 2025)

Experiments:
RORγt = target: T1, RORγt (Homo sapiens, UniProt P51449); assay: Indigo Biosciences Human RAR-related Orphan Receptor, Gamma Reporter Assay (in vitro inhibition of RORγt); type: cell-based; settings: RORγt reporter cells, luciferase readout, 22-24 h incubation; read-out: IC50 range
T1 sequence (P51449 269-508 limits assumed): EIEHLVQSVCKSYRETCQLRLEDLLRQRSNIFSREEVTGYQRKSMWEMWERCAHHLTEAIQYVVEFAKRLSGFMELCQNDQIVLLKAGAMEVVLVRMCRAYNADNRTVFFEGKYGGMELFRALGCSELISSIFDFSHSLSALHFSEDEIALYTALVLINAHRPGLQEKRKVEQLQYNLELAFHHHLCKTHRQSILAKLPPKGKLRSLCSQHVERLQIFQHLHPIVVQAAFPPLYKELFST
Protocol: The in vitro inhibition of RORγt was measured using Indigo Biosciences Human RAR-related Orphan Receptor, Gamma Reporter Assay System (Product #IB304001-32) as described in the technical manual. In brief, 200 μL of Reporter Cells is dispensed into wells of the assay plate and preincubated for 4-6 h. Following the pre-incubation period, culture media are discarded and 200 µL/well of the prepared 1×-concentration treatment media are added. Following 22-24 h incubation, treatment media are discarded and Luciferase Detection Reagent is added. The intensity of light emission (in units of ‘Relative Light Units’; RLU) from each assay well is quantified using a plate-reading luminometer. Average values of RLU were determined for each treatment concentration. Non-linear regression analyses were performed and IC50 values determined using GraphPad Prism software. Provided inverse-agonists ursolic acid served as positive control.

SARS-CoV-2 = assay: Antiviral activity on SARS-CoV-2, viral replication (YFP) assay; type: cell-based; settings: Severe acute respiratory syndrome coronavirus 2, read-out: EC50 range
Excerpt: (§1) The assay for viral replication (YFP) and the cell viability assay has been described in general in Pathogens 2021; 10:1076 and applied to compounds of the present invention furnished the following results: […]

[1] = Cell viability assay accompanying the SARS-CoV-2 assay; type: cell-based; settings: cell viability assay of the SARS-CoV-2 test
Excerpt: as §1

[2] = Mouse pharmacokinetics, oral or intravenous cassette dosing; type: in vivo, mice (C57BL/6J); settings: C57BL/6J, whole blood, 3 female mice, 5 mg/kg oral cassette, sampling 0.25-8 h
Protocol: The pharmacokinetics of the compounds of the present invention was evaluated in 3 male and 3 female mice (C57BL/6J, 8 week old) after oral or intravenous cassette dosing to assess the oral bioavailability. Dose was 5 mg/kg (oral) and 1 mg/kg (intravenous), application volume was 5 mL/kg (oral) and 0.5 mL/kg (intravenous), vehicle was 5% solutol, 95% NaCl solution (at 0.9% saline concentration) for oral and 5% solutol, 5% Ethanol, 90% NaCl solution (at 0.9% saline concentration) for intravenous. At each designated time point (0.25, 0.5, 1, 2, 4, 8 and 24 h after dosing), 20 μL whole blood were collected from the tail vein into Li-heparin tubes, frozen on dry ice within 1-2 minutes of sampling and stored at −20° C. until processed for LC-MS analysis. The obtained data is as follows:
(§2) The pharmacokinetics of additional compounds of the present invention was evaluated in 3 female mice (C57BL/6J, 8 week old) after oral cassette dosing. Dose was 5 mg/kg, application volume was 5 mL/kg, vehicle was 5% solutol, 95% NaCl solution (at 0.9% saline concentration). At each designated time point (0.5, 1, 2, 4, 8 and 24 h after dosing), 20 μL whole blood were collected from the tail vein into Li-heparin tubes, frozen on dry ice within 1-2 minutes of sampling and stored at −20° C. until processed for LC-MS analysis. The obtained data is as follows:
as §2, with “(0.25, 0.5,” for “(0.5,”, “4 and” for “4,”, “8” for “8 and 24”, “analysis.” for “analysis. The obtained data is as follows:”

Structure (SMILES) | IC50 (RORγt) [nM] | further results
[2H][C@]1(n2ncc(-c3onc(-c4ccccc4Cl)c3-c3ncccn3)c2C(F)(F)F)C[C@@](C)(O)C1 [2-2/1] | 10 to 100 | –
[2H][C@]1(n2ncc(-c3onc(-c4c(F)cccc4Cl)c3-c3ncccn3)c2C(F)F)C[C@@](C)(O)C1 [4-2/1] | 10 to 100 | –
[2H]c1c([2H])c(F)c(-c2noc(-c3cnn(C([2H])([2H])CC(C)(C)O)c3C(F)(F)F)c2-c2ncccn2)c(Cl)c1[2H] [5/2] | < 10 | –
[2H]C([2H])(CC(C)(C)O)n1ncc(-c2onc(-c3c(F)cccc3Cl)c2-c2ncccn2)c1COC [10/2] | 100 to 1000 | EC50 (SARS-CoV-2): 1000 to 50000 nM; CC50 [1]: > 100000 nM
[2H]C([2H])(CC(C)(C)O)n1ncc(-c2onc(-c3c(F)cccc3Cl)c2-c2ncccn2)c1C1CC1 [10/3] | 100 to 1000 | EC50 (SARS-CoV-2): 100 to 1000 nM; CC50 [1]: > 100000 nM
[2H]C([2H])(OC1COC1)c1c(-c2c(F)cccc2Cl)noc1-c1cnn(-c2cccc(Cl)c2)c1C(F)(F)F [110/2] | 10 to 100 | –
[2H]C([2H])(OCC)c1c(-c2c(F)cccc2Cl)noc1-c1cnn(-c2cccc(Cl)c2)c1C(F)(F)F [110/3] | 10 to 100 | –
[2H]C([2H])(OC(C)C)c1c(-c2c(F)cc(F)cc2Cl)noc1-c1cnn(-c2cccc(Cl)c2)c1C(F)(F)F [111/2] | 100 to 1000 | –
[2H]C([2H])(OC1CC1)c1c(-c2c(F)cccc2Cl)noc1-c1cnn(-c2cc(F)cc(Cl)c2)c1C(F)(F)F [111/3] | 10 to 100 | –
[2H]C([2H])(OC(C)C)c1c(-c2c(F)cccc2Cl)noc1-c1cnn(-c2cc(F)cc(Cl)c2)c1C(F)(F)F [111/4] | 10 to 100 | –
[2H]C([2H])([C@H](C)O)n1ncc(-c2onc(-c3c(F)cccc3Cl)c2-c2ncccn2)c1C(F)(F)F [Example 1, (S)-1-(4-(3-(2-Chloro-6-fluorophenyl)-4-(pyrimidin-2-yl)isoxazol-5-yl)-5-(trifluoromethyl)-1H-pyrazol-1-yl)propan-1,1-d2-2-ol] | 10 to 100 | EC50 (SARS-CoV-2): < 100 nM; CC50 [1]: 22000 nM
[2H][C@]1(n2ncc(-c3onc(-c4c(F)cccc4Cl)c3-c3ncccn3)c2C(F)(F)F)C[C@](C)(O)C1 [Example 2-1, (1r,3r)-3-(4-(3-(2-Chloro-6-fluorophenyl)-4-(pyrimidin-2-yl)isoxazol-5-yl)-5-(trifluoro-methyl)-1H-pyrazol-1-yl)-1-methylcyclobutan-3-d-1-ol] | 100 to 1000 | –
[2H][C@]1(n2ncc(-c3onc(-c4ccccc4Cl)c3-c3ncccn3)c2C(F)(F)F)C[C@](C)(O)C1 [Example 2-1/1] | 100 to 1000 | –
[2H][C@]1(n2ncc(-c3onc(-c4c(F)cccc4Cl)c3-c3ncccn3)c2C(F)(F)F)C[C@@](C)(O)C1 [Example 2-2, (1s,3s)-3-(4-(3-(2-chloro-6-fluorophenyl)-4-(pyrimidin-2-yl)isoxazol-5-yl)-5-(trifluoromethyl)-1H-pyrazol-1-yl)-1-methylcyclobutan-3-d-1-ol] | 10 to 100 | –
[2H]C([2H])(CC(C)(C)O)n1ncc(-c2onc(-c3c(F)cccc3Cl)c2-c2nccs2)c1C(F)(F)F [Example 3-1] | < 10 | EC50 (SARS-CoV-2): < 100 nM; CC50 [1]: 17000 nM
[2H]c1nc(-c2c(-c3c(F)cccc3Cl)noc2-c2cnn(C([2H])([2H])CC(C)(C)O)c2C(F)(F)F)sc1[2H] [Example 3-2] | < 10 | –
[2H]c1nc(-c2c(-c3c(F)cccc3Cl)noc2-c2cnn(C([2H])([2H])CC(C)(C)O)c2C(F)(F)F)nc([2H])c1[2H] [Example 3-3] | 10 to 100 | –
[2H]C([2H])(CC(C)(C)O)n1ncc(-c2onc(-c3c(F)cccc3Cl)c2-c2ncccn2)c1C(F)F [Example 4, 4-(4-(3-(2-Chloro-6-fluorophenyl)-4-(pyrimidin-2-yl)isoxazol-5-yl)-5-(difluoromethyl)-1H-pyrazol-1-yl)-2-methylbutan-4,4-d2-2-ol] | 10 to 100 | EC50 (SARS-CoV-2): < 100 nM; CC50 [1]: > 100000 nM
[2H][C@]1(n2ncc(-c3onc(-c4c(F)cccc4Cl)c3-c3ncccn3)c2C(F)F)C[C@](C)(O)C1 [Example 4-1/1] | 100 to 1000 | –
[2H]C([2H])(CC(C)(C)O)n1ncc(-c2onc(-c3c(F)cc(OC)cc3Cl)c2-c2ncccn2)c1C(F)(F)F [Example 5, 4-(4-(3-(2-Chloro-6-fluoro-4-methoxyphenyl)-4-(pyrimidin-2-yl)isoxazol-5-yl)-5-(trifluoro-methyl)-1H-pyrazol-1-yl)-2-methylbutan-4,4-d2-2-ol] | 100 to 1000 | EC50 (SARS-CoV-2): 100 to 1000 nM; CC50 [1]: > 100000 nM
[2H]C([2H])(CC(C)(C)O)n1ncc(-c2onc(-c3c(F)cc(OCCN4CCOCC4)cc3Cl)c2-c2ncccn2)c1C(F)(F)F [Example 6, 4-(4-(3-(2-Chloro-6-fluoro-4-(2-morpholinoethoxy)phenyl)-4-(pyrimidin-2-yl)isoxazol-5-yl)-5-(trifluoromethyl)-1H-pyrazol-1-yl)-2-methylbutan-4,4-d2-2-ol] | 100 to 1000 | EC50 (SARS-CoV-2): 100 to 1000 nM; CC50 [1]: 27000 nM
[2H]C([2H])([2H])C([2H])([2H])OC(=O)c1c(-c2c(F)cccc2Cl)noc1-c1cnn(-c2cccc(Cl)c2)c1C(F)(F)F [Example 100/1] | < 10 | –
[2H]c1nc(-c2c(-c3c(F)cccc3Cl)noc2-c2cnn(-c3cccc(Cl)c3)c2C(F)(F)F)nc([2H])c1[2H] [Example 103, 3-(2-Chloro-6-fluorophenyl)-5-(1-(3-chlorophenyl)-5-(trifluoromethyl)-1H-pyrazol-4-yl)-4-(pyrimidin-2-yl-d3)isoxazole] | 10 to 100 | –
[2H]c1c([2H])c(F)c(-c2noc(-c3cnn(-c4cccc(Cl)c4)c3C(F)(F)F)c2C(=O)OC)c(Cl)c1[2H] [Example 104, Methyl 3-(2-chloro-6-fluorophenyl-3,4,5-d3)-5-(1-(3-chlorophenyl)-5-(trifluoro-methyl)-1H-pyrazol-4-yl)isoxazole-4-carboxylate] | 10 to 100 | –
[2H]c1cc([2H])c(-n2ncc(-c3onc(-c4c(F)cccc4Cl)c3C(=O)OC)c2C(F)(F)F)c([2H])c1Cl [Example 105, Methyl 3-(2-chloro-6-fluorophenyl)-5-(1-(3-chlorophenyl-2,4,6-d3)-5-(trifluoro-methyl)-1H-pyrazol-4-yl)isoxazole-4-carboxylate] | < 10 | –
[2H]c1cc([2H])c(-n2ncc(-c3onc(-c4c(F)cccc4Cl)c3-c3nccs3)c2C(F)(F)F)c([2H])c1Cl [Example 106, 3-(2-Chloro-6-fluorophenyl)-5-(1-(3-chlorophenyl-2,4,6-d3)-5-(trifluoromethyl)-1H-pyrazol-4-yl)-4-(thiazol-2-yl)isoxazole] | < 10 | –
[2H]c1nc(-c2c(-c3c(F)cccc3Cl)noc2-c2cnn(-c3cccc(Cl)c3)c2C(F)(F)F)sc1[2H] [Example 107, 3-(2-Chloro-6-fluorophenyl)-5-(1-(3-chlorophenyl)-5-(trifluoromethyl)-1H-pyrazol-4-yl)-4-(thiazol-2-yl-d2)isoxazole] | 10 to 100 | half-life [2]: 1.6 h; AUC(0-t) ([2]; read-out: AUC0-8 h): 871 ng·h/mL
[2H]C([2H])(OC(F)(F)F)c1c(-c2c(F)cccc2Cl)noc1-c1cnn(-c2cccc(Cl)c2)c1C(F)(F)F [Example 109, 3-(2-Chloro-6-fluorophenyl)-5-(1-(3-chlorophenyl)-5-(trifluoromethyl)-1H-pyrazol-4-yl)-4-((trifluoromethoxy)methyl-d2)isoxazole] | 10 to 100 | –
[2H]C([2H])(OC1CC1)c1c(-c2c(F)cc(F)cc2Cl)noc1-c1cnn(-c2cccc(Cl)c2)c1C(F)(F)F [Example 111/1] | 100 to 1000 | –
